Laboratory results as given in US12114655B2, “Agricultural compositions and methods of use thereof” (Valent U.S.A. LLC, priority 2019, dated 2024).

System: corn
Experiment: Spray chamber treatment of corn plots grown to 12 inches: efficacy of clethodim with or without mannitol or sorbitol
Assay type: in vivo
Conditions: 14 days after treatment; clethodim 55.4 g/HA, mannitol or sorbitol 6800 g/HA where present; all compositions with 1% v/v Agridex and 0.25% v/v Induce; corn 12 inches in height
Method: 4 trials were conducted on the efficacy of clethodim with or without mannitol or sorbitol. Specifically, 4 plots of corn were grown to 12 inches in height. These plots were placed in a spray chamber for treatment. All compositions contained 1% v/v of Agridex® and 0.25% v/v of Induce®. Treatments and results can be found in Table 1, below.

CCSC(C)CC1CC(=O)C(/C(CC)=N/OC/C=C/Cl)=C(O)C1 (stereo not shown) [Clethodim, clethodim]
Days After Treatment (% control) 14: 20.8 % control
